This passage reports Ki results from ChEMBL document CHEMBL1128853, “Zn(II)-chelating inhibitors of carboxypeptidase A” (Bioorg Med Chem Lett, 1995).

Structures are written as SMILES.

This assay can be described thus: Binding affinity against Carboxypeptidase A.
As a reminder, the Ki is a measure of affinity in units of concentration, obtained from inhibition or displacement. Low readings indicate tighter binding, high ones weaker binding. As to `NC(=O)C(CSCCS)Cc1ccccc1` (stereo unspecified), the Ki is 29 µM.
Take `O=C(CC(Cc1ccccc1)C(=O)O)c1ccccn1` (stereo unspecified): the Ki was 82 µM.
`O=C(O)C(CCCCS)Cc1ccccc1` (stereo unspecified): the Ki stood at 45 µM.
In the case of `NC(=O)C(CCSCCS)Cc1ccccc1` (stereo unspecified) it was 92 µM.
For the compound `O=C(O)CC(CSCCS)Cc1ccccc1` (stereo unspecified), the Ki turned out to be 19 µM.
In the case of `O=C(Nc1ccccc1)C(CSCCS)Cc1ccccc1` (stereo unspecified) it was 34 µM.
Under `O=C(NC(Cc1ccccc1)C(=O)O)c1cnccn1` (stereo unspecified) stands 180 µM; under `O=C(O)C(CSCCS)Cc1ccccc1` (stereo unspecified), 4.2 µM; under `O=C(CC/C(=N\O)c1ccccn1)NC(Cc1ccccc1)C(=O)O` (stereo unspecified), greater than 300 µM.
Under `O=C(O)C(C/C(=N\O)c1ccccn1)Cc1ccccc1` (stereo unspecified) stands greater than 300 µM; under `O=C(O)C(Cc1ccccc1)NC/C(=N\O)c1ccccn1` (stereo unspecified), 580 µM; under `O=C(O)C(CCc1ccccc1S)Cc1ccccc1` (stereo unspecified), 5.8 µM.
In turn, `O=C(O)c1cccc(C(=O)NC(Cc2ccccc2)C(=O)O)n1` (stereo unspecified) showed a Ki of 790 µM.
For the compound `CCCSCC(Cc1ccccc1)C(=O)O` (stereo unspecified), the affinity corresponds to a Ki of 340 µM.
Under `CCCCCC(Cc1ccccc1)C(=O)O` (stereo unspecified) stands 620 µM; under `O=C(O)C(Cc1ccccc1)(Cc1ccccc1)SCCSc1ccccc1`, 450 µM.
In the case of `O=C(NC(Cc1ccccc1)C(=O)O)c1ccccn1` (stereo unspecified) it was 370 µM; in that of `O=C(CC(Cc1ccccc1)C(=O)O)c1ccccc1S` (stereo unspecified), 4.4 µM; in that of `O=C(O)C(Cc1ccccc1)SCCSc1ccccc1` (stereo unspecified), 670 µM.
In the case of `O=C(O)C(CSCCSCc1ccccc1)Cc1ccccc1` (stereo unspecified) it was 660 µM; in that of `O=C(O)C(Cc1ccccc1)SCCS` (stereo unspecified), 21 µM.
